Values after ≈ are worked out from the molar mass of the structure shown.
Key:
[1] = system: V79; test: Mammalian cell cytotoxicity test in chinese hamster V79 cells (clonogenic cytotoxicity); type: functional, cell-based
[2] = Antibacterial activity against five Gram-negative bacteria; type: functional
[3] = Cricetulus griseus, V79, read-out: IC50

Compound | IC50 [1, 3] [µg/mL] | MIC ([2]; read-out: MIC) [µg/mL] | IC50 ([1]; v79) [µg/mL] | MIC [2] [µg/mL]
CC1(CN)CCN(c2c(F)cc3c(=O)c(C(=O)O)cn(C4CC4)c3c2Cl)C1 (stereo unspecified) | 8 (≈ 20.3 µM) | 0.07 (≈ 0.178 µM) |  | 
CCNCC1CCN(c2c(F)cc3c(=O)c(C(=O)O)cn(C4CC4)c3c2[N+](=O)[O-])C1 (stereo unspecified) | 67 (≈ 160 µM) | 1.05 (≈ 2.51 µM) |  | 
CCNCC1CCN(c2c(F)c(NC)c3c(=O)c(C(=O)O)cn(C4CC4)c3c2F)C1 (stereo unspecified) | 53 (≈ 126 µM) | 0.69 (≈ 1.64 µM) |  | 
COc1c(N2CCC(C)(N)C2)c(F)cc2c(=O)c(C(=O)O)cn(-c3ccc(F)cc3F)c12 (stereo unspecified) | 250 (≈ 559 µM) | 0.46 (≈ 1.03 µM) |  | 
O=C(O)c1cn(-c2ccc(F)cc2F)c2cc(N3CCNCC3)c(F)cc2c1=O | > 500 | 0.11 (≈ 0.273 µM) |  | 
CCNCC1CCN(c2c(F)cc3c(=O)c(C(=O)O)cn(C4CC4)c3c2F)C1 (stereo in doubt; 12) [PD-117558] | 11 (≈ 28.1 µM) | 0.05 (≈ 0.128 µM) |  | 
CCNCC1CCN(c2cc3c(c(C)c2F)c(=O)c(C(=O)O)cn3C2CC2)C1 (stereo unspecified) | 42 (≈ 108 µM) | 0.6 (≈ 1.55 µM) |  | 
NC1CCN(c2c(F)cc3c(=O)c(C(=O)O)cn(C4CC4)c3c2F)C1 (stereo in doubt; 21) | 30 (≈ 85.9 µM) | 0.04 (≈ 0.115 µM) |  | 
CC1(N)CCN(c2c(F)cc3c(=O)c(C(=O)O)cn(-c4ccc(F)cc4F)c3c2C(F)(F)F)C1 (stereo unspecified) | 18 (≈ 37.1 µM) | 2.07 (≈ 4.26 µM) |  | 
CCNCC1CCN(c2c(F)cc3c(=O)c(C(=O)O)cn(C4CC4)c3c2OC)C1 (stereo in doubt; 26d) | 22 (≈ 54.5 µM) | 0.26 (≈ 0.644 µM) |  | 
CNCC1(C)CCN(c2c(F)cc3c(=O)c(C(=O)O)cn(C4CC4)c3c2C(F)(F)F)C1 (stereo unspecified) | 230 (≈ 521 µM) | > 30 |  | 
CC1CN(c2c(F)cc3c(=O)c(C(=O)O)cn(C4CC4)c3c2Cl)CCN1 (stereo unspecified) | 45 (≈ 118 µM) | 0.08 (≈ 0.211 µM) |  | 
CCNCC1CCN(c2cc3c(c(N)c2F)c(=O)c(C(=O)O)cn3C2CC2)C1 (stereo unspecified) | 61 (≈ 157 µM) | 0.35 (≈ 0.901 µM) |  | 
CCNCC1CCN(c2c(F)c(F)c3c(=O)c(C(=O)O)cn(C4CC4)c3c2F)C1 (stereo unspecified) | 46 (≈ 112 µM) | 0.56 (≈ 1.37 µM) |  | 
O=C(O)c1cn(C2CC2)c2c(C(F)(F)F)c(N3CCNCC3)c(F)cc2c1=O | 1650 (≈ 4130 µM) | 0.15 (≈ 0.376 µM) |  | 
COc1c(N2CC(C)NC(C)C2)c(F)cc2c(=O)c(C(=O)O)cn(C3CC3)c12 (stereo unspecified) | > 500 | 0.34 (≈ 0.873 µM) |  | 
CCNCC1CCN(c2c(F)cc3c(=O)c(C(=O)O)cn(CCF)c3c2F)C1 (stereo unspecified) | > 500 | 0.4 (≈ 1.01 µM) |  | 
CCNCC1CCN(c2cc3c(cc2F)c(=O)c(C(=O)O)cn3NC)C1 (stereo unspecified) | > 500 | 12.5 (≈ 34.5 µM) |  | 
CSc1c(N2CCC(N)C2)c(F)cc2c(=O)c(C(=O)O)cn(C3CC3)c12 (stereo unspecified) | 31 (≈ 82.1 µM) | 0.2 (≈ 0.53 µM) |  | 
NC1CCN(c2c(F)cc3c(=O)c(C(=O)O)cn(-c4ccc(F)cc4F)c3c2Cl)C1 (stereo unspecified) | 89 (≈ 203 µM) | 0.23 (≈ 0.525 µM) |  | 
Nc1c(F)c(N2CCC(N)C2)cc2c1c(=O)c(C(=O)O)cn2C1CC1 (stereo unspecified) | 54 (≈ 156 µM) | 0.04 (≈ 0.115 µM) |  | 
CCNCC1CCN(c2c(F)c(NC(C)=O)c3c(=O)c(C(=O)O)cn(C4CC4)c3c2F)C1 (stereo unspecified) | > 500 | > 25 |  | 
Nc1c(F)c(N2CCC(N)C2)c(F)c2c1c(=O)c(C(=O)O)cn2C1CC1 (stereo unspecified) | 15 (≈ 41.2 µM) | 0.01 (≈ 0.0274 µM) |  | 
CSc1c(F)c(N2CCC(N)C2)cc2c1c(=O)c(C(=O)O)cn2C1CC1 (stereo unspecified) | 92 (≈ 244 µM) | > 1.58 |  | 

Compound | IC50 [1, 3] [µg/mL] | MIC ([2]; read-out: MIC) [µg/mL] | IC50 ([1]; v79) [µg/mL] | MIC [2] [µg/mL]
CCNCC1CCN(c2c(F)cc3c(=O)c(C(=O)O)cn(C4CC4)c3c2Cl)C1 (stereo in doubt; 26c) |  | 0.14 (≈ 0.343 µM) | 11 (≈ 27 µM) | 
COc1c(N2CCC(N)C2)c(F)cc2c(=O)c(C(=O)O)cn(-c3ccc(F)cc3F)c12 (stereo unspecified) | 290 (≈ 669 µM) | 0.35 (≈ 0.808 µM) |  | 
CCNCC1CCN(c2c(F)c(C)c3c(=O)c(C(=O)O)cn(C4CC4)c3c2F)C1 (stereo unspecified) | 9 (≈ 22.2 µM) | 0.28 (≈ 0.691 µM) |  | 
CC1(CN)CCN(c2cc3c(cc2F)c(=O)c(C(=O)O)cn3C2CC2)C1 (stereo unspecified) | 23 (≈ 64 µM) | 0.52 (≈ 1.45 µM) |  | 
CCNCC1CCN(c2cc3c(cc2F)c(=O)c(C(=O)O)cn3CC)C1 (stereo unspecified) | 310 (≈ 858 µM) | 0.56 (≈ 1.55 µM) |  | 
CNCC1(C)CCN(c2c(F)cc3c(=O)c(C(=O)O)cn(C4CC4)c3c2F)C1 (stereo unspecified) | 8 (≈ 20.4 µM) | 0.23 (≈ 0.588 µM) |  | 
NCC1CCN(c2cc3c(cc2F)c(=O)c(C(=O)O)cn3C2CC2)C1 (stereo unspecified) | 81 (≈ 235 µM) | 0.2 (≈ 0.579 µM) |  | 
O=C(O)c1cn(C2CC2)c2nc(N3CCNCC3)c(F)cc2c1=O | 120 (≈ 361 µM) | 0.09 (≈ 0.271 µM) |  | 
CCNCC1CCN(c2nc3c(cc2F)c(=O)c(C(=O)O)cn3C2CC2)C1 (stereo unspecified) | 160 (≈ 427 µM) | 0.21 (≈ 0.561 µM) |  | 
NC1CCN(c2nc3c(cc2F)c(=O)c(C(=O)O)cn3C2CC2)CC1 | 100 (≈ 289 µM) | 0.23 (≈ 0.664 µM) |  | 
CC1CN(c2c(F)cc3c(=O)c(C(=O)O)cn(-c4ccc(F)cc4F)c3c2C(F)(F)F)CCN1 (stereo unspecified) | > 500 | 4.14 (≈ 8.53 µM) |  | 
NC1CCN(c2c(F)cc3c(=O)c(C(=O)O)cn(C4CC4)c3c2C(F)(F)F)C1 (stereo in doubt; 45) | 300 (≈ 751 µM) | 0.2 (≈ 0.501 µM) |  | 
CNCC1(C)CCN(c2c(F)cc3c(=O)c(C(=O)O)cn(C4CC4)c3c2Cl)C1 (stereo unspecified) | 23 (≈ 56.4 µM) | 0.26 (≈ 0.637 µM) |  | 
COc1c(N2CCC(N)C2)c(F)cc2c(=O)c(C(=O)O)cn(C3CC3)c12 (stereo in doubt; 47) |  |  | 44 (≈ 122 µM) | 0.07 (≈ 0.194 µM)
NC1CCN(c2c(F)cc3c(=O)c(C(=O)O)cn(C4CC4)c3c2F)CC1 | 23 (≈ 63.3 µM) | 0.2 (≈ 0.55 µM) |  | 
CCNCC1CCN(c2c(F)cc3c(=O)c(C(=O)O)cn(CC(F)(F)F)c3c2F)C1 (stereo unspecified) | 58 (≈ 134 µM) | 1.82 (≈ 4.2 µM) |  | 
NC1CCN(c2cc3c(cc2F)c(=O)c(C(=O)O)cn3C2CC2)C1 (stereo in doubt; 24a) | 72 (≈ 217 µM) | 0.09 (≈ 0.272 µM) |  | 
NCC1CCN(c2c(F)cc3c(=O)c(C(=O)O)cn(C4CC4)c3c2Cl)C1 (stereo unspecified) | 8 (≈ 21.1 µM) | 0.06 (≈ 0.158 µM) |  | 
NC1CCN(c2c(F)c(F)c3c(=O)c(C(=O)O)cn(C4CC4)c3c2F)C1 (stereo unspecified) | 100 (≈ 272 µM) | 0.08 (≈ 0.218 µM) |  | 
CC1CN(c2c(F)cc3c(=O)c(C(=O)O)cn(C4CC4)c3c2Cl)CC(C)N1 (stereo unspecified) | 140 (≈ 355 µM) | 0.23 (≈ 0.584 µM) |  | 
C=Cn1cc(C(=O)O)c(=O)c2cc(F)c(N3CCC(N)C3)c(F)c21 (stereo unspecified) | 310 (≈ 925 µM) | 0.13 (≈ 0.388 µM) |  | 
O=C(O)c1cn(C2CC2)c2cc(N3CCNCC3)c(F)cc2c1=O [CIPROFLOXACIN] | 380 (≈ 1150 µM) | 0.1 (≈ 0.302 µM) | 380 (≈ 1150 µM) | 0.1 (≈ 0.302 µM)
CCNCC1CCN(c2c(F)cc3c(=O)c(C(=O)O)cn(C4CC4)c3c2C(F)(F)F)C1 (stereo unspecified) | 120 (≈ 272 µM) | 0.6 (≈ 1.36 µM) |  | 

From ChEMBL document CHEMBL1125556, “Fluoroquinolones: relationships between structural variations, mammalian cell cytotoxicity, and antimicrobial activity” (J Med Chem, 1992)
